Results reported in article PMC9865890, “N-Derivatives of (Z)-Methyl 3-(4-Oxo-2-thioxothiazolidin-5-ylidene)methyl)-1H-indole-2-carboxylates as Antimicrobial Agents—In Silico and In Vitro Evaluation” (Pharmaceuticals, 2023).
Converted amounts (≈) assume the structure as drawn. Where two headings read alike, the source gives them in different places.

Columns and labels:
Assay type in all cases: cell-based
[1] = system: Bacillus cereus (clinical isolate); test: Antibacterial microdilution (MIC/MBC); settings: Bacillus cereus, B.c. (B. cereus); for MIC: read-out: MIC
Protocol: (§1) The synthesized compounds (Table 1) were evaluated for their antibacterial activity against a panel of eight species using a microdilution method with ampicillin and streptomycin as reference drugs. […] The order of activity can be presented as: 8 > 11 > 2 > 1 > 12 > 3 > 17 > 7 > 5 > 13 > 14 > 16 > 9 > 4 = 6 > 15 > 10. […] Cloacae. […] The most sensitive bacteria appeared to be En. cloacae, while E. coli was the most resistant one, followed by M. flavus.
(§2) The following Gram-negative bacteria: Escherichia coli (ATCC 35210), Enterobacter cloacae (clinical isolate), Salmonella typhimurium (ATCC 13311), as well as Gram-positive bacteria: Listeria monocytogenes (NCTC 7973), Bacillus cereus (clinical isolate), and Staphylococcus aureus (ATCC 6538) were used. The organisms were obtained from the Mycological Laboratory, Department of Plant Physiology, Institute for Biological Research “Siniša Stankovic”, Belgrade, Serbia. The minimum inhibitory (MIC) and minimum bactericidal (MBC) concentrations were determined by the modified microdilution method, as previously reported.

[2] = system: Enterobacter cloacae (clinical isolate); test: Antibacterial microdilution (MIC/MBC); settings: En.cl (En. cloacae)
Protocol: as §1, §2

[3] = system: Escherichia coli (ATCC 35210); test: Antibacterial microdilution (MIC/MBC); settings: Escherichia coli, ATCC35210, E. coli; for MIC: read-out: MIC
Protocol: as §1, §2

[4] = system: Listeria monocytogenes (NCTC 7973); test: Antibacterial microdilution (MIC/MBC); settings: L.m. (L. monocytogenes)
Protocol: as §1, §2

M. flavus = test: Antibacterial microdilution (MIC/MBC); settings: Micrococcus flavus; M.f. (M. flavus)
Protocol: as §1, §2

P. aeruginosa = test: Antibacterial microdilution (MIC/MBC); settings: Pseudomonas aeruginosa, P.a. (P. aeruginosa); for MIC: read-out: MIC
Protocol: as §1, §2

[5] = system: Salmonella typhimurium (ATCC 13311); test: Antibacterial microdilution (MIC/MBC); settings: S.t. (S. typhimurium)
Protocol: as §1, §2

[6] = system: Staphylococcus aureus (ATCC 6538); test: Antibacterial microdilution (MIC/MBC); settings: S.a. (S. aureus)
Protocol: as §1, §2

A. ochraceus = test: Antifungal bioassay (MIC/MFC); settings: Aspergillus ochraceus, A.o. (A. ochraceus); for MIC: read-out: MIC
Protocol: (§3) For the antifungal bioassays, six fungi were used: […] The organisms were obtained from the Mycological Laboratory, Department of Plant Physiology, Institute for Biological Research “Siniša Stankovic”, Belgrade, Serbia. All experiments were performed in duplicate.

[7] = system: Aspergillus fumigatus (ATCC 1022); test: Antifungal bioassay (MIC/MFC); settings: ATCC1022, A.f. (A. fumigatus)
Protocol: as §3

[8] = system: Aspergillus niger (ATCC 6275); test: Antifungal bioassay (MIC/MFC); settings: ATCC6275, A.n. (A. niger)
Protocol: as §3

[9] = system: Aspergillus versicolor (ATCC 11730); test: Antifungal bioassay (MIC/MFC); settings: ATCC11730, A.v. (A. versicolor)
Protocol: as §3

P. ochrochloron = test: Antifungal bioassay (MIC/MFC); settings: for MIC: P.o. (P. ochrochloron; text: P. ochramensis); for MFC: P.o. (P. ochrochloron)
Protocol: as §3

[10] = system: Penicillium funiculosum (ATCC 36839); test: Antifungal bioassay (MIC/MFC); settings: Talaromyces funiculosus, ATCC36839; P.f. (P. funiculosum)
Protocol: as §3

[11] = system: Trichoderma viride (IAM 5061); test: Antifungal bioassay (MIC/MFC); settings: T.v. (T. viride)
Protocol: as §3

[12] = system: Penicillium verrucosum var. cyclopium (food isolate); test: Antifungal bioassay (MIC/MFC)
Protocol: For the antifungal bioassays, six fungi were used: Aspergillus niger (ATCC 6275), Aspergillus fumigatus (ATCC 1022), Aspergillus versicolor (ATCC 11730), Penicillium funiculosum (ATCC 36839), Trichoderma viride (IAM 5061), and Penicillium verrucosum var. cyclopium (food isolate). The organisms were obtained from the Mycological Laboratory, Department of Plant Physiology, Institute for Biological Research “Siniša Stankovic”, Belgrade, Serbia. All experiments were performed in duplicate.

[13] = Enterobacter cloacae, read-out: MIC
[14] = Listeria monocytogenes, NCTC7973
[15] = Listeria monocytogenes, NCTC7973, read-out: MIC
[16] = Salmonella enterica, read-out: MIC
[17] = Staphylococcus aureus, ATCC6538
[18] = Staphylococcus aureus, ATCC6538, read-out: MIC
[19] = Penicillium ochrochloron, read-out: MIC
[20] = Trichoderma viride, IAM5061, read-out: MIC

| SMILES | MBC [1] | MIC [1] | MBC ([2]; Enterobacter cloacae) | MIC [2, 13] | MBC [3] | MIC [3] | MBC [4, 14] | MIC [4, 15] | MBC (M. flavus) | MIC (M. flavus) | MBC (P. aeruginosa) | MIC (P. aeruginosa) | MBC ([5]; Salmonella enterica) | MIC [5, 16] | MBC [6, 17] | MIC [6, 18] | MFC (A. ochraceus) | MIC (A. ochraceus) | MFC [7] | MIC [7] | further results |
| --- | --- | --- | --- | --- | --- | --- | --- | --- | --- | --- | --- | --- | --- | --- | --- | --- | --- | --- | --- | --- | --- |
| COC(=O)c1[nH]c2ccccc2c1/C=C1\SC(=S)N(Cc2ccco2)C1=O [Compound 7, (Z)-methyl 3-((3-(furan-2-ylmethyl)-4-oxo-2-thioxothiazolidin-5-ylidene)methyl)-1H-indole-2-carboxylate] | 60 ± 6 µg/mL (≈ 151 µM) | 30 ± 10 µg/mL (≈ 75.3 µM) | 30 ± 10 µg/mL (≈ 75.3 µM) | 15 ± 9 µg/mL (≈ 37.6 µM) | 60 ± 6 µg/mL (≈ 151 µM) | 30 ± 10 µg/mL (≈ 75.3 µM) | 60 ± 6 µg/mL (≈ 151 µM) | 30 ± 10 µg/mL (≈ 75.3 µM) | 60 ± 6 µg/mL (≈ 151 µM) | 45 ± 3 µg/mL (≈ 113 µM) | 60 ± 6 µg/mL (≈ 151 µM) | 30 ± 10 µg/mL (≈ 75.3 µM) | 30 ± 10 µg/mL (≈ 75.3 µM) | 15 µg/mL (≈ 37.6 µM) | 30 ± 10 µg/mL (≈ 75.3 µM) | 15 µg/mL (≈ 37.6 µM) | 15 ± 3 µg/mL (≈ 37.6 µM) | 8 ± 0.6 µg/mL (≈ 20.1 µM) | 120 ± 40 µg/mL (≈ 301 µM) | 60 ± 6 µg/mL (≈ 151 µM) | MIC [5]: 15 ± 9 µg/mL (≈ 37.6 µM); MIC [6]: 15 ± 9 µg/mL (≈ 37.6 µM); MFC [8]: 15 ± 3 µg/mL (≈ 37.6 µM); MIC [8]: 8 ± 0.6 µg/mL (≈ 20.1 µM); MFC [9]: 15 ± 3 µg/mL (≈ 37.6 µM); MIC [9]: 8 ± 0.6 µg/mL (≈ 20.1 µM); MIC (P. ochrochloron): 8 ± 0.6 µg/mL (≈ 20.1 µM); MFC (P. ochrochloron; Penicillium ochrochloron): 15 ± 3 µg/mL (≈ 37.6 µM); MIC (P. ochrochloron; [19]): 8 µg/mL (≈ 20.1 µM); MFC [10]: 30 ± 10 µg/mL (≈ 75.3 µM); MIC [10]: 15 ± 3 µg/mL (≈ 37.6 µM); MIC [11]: 4 ± 1 µg/mL (≈ 10 µM); MFC ([11]; Trichoderma viride, IAM5061): 8 ± 0.6 µg/mL (≈ 20.1 µM); MIC [11, 20]: 4 µg/mL (≈ 10 µM); MFC [12]: 30 ± 10 µg/mL (≈ 75.3 µM); MIC [12]: 15 ± 3 µg/mL (≈ 37.6 µM) |
| COC(=O)c1[nH]c2ccc(F)cc2c1/C=C1\SC(=S)N(C(C(=O)O)C(C)C)C1=O (stereo not shown) [Compound 8, (Z)-2-(5-((5-fluoro-2-(methoxycarbonyl)-1H-indol-3-yl)methylene)-4-oxo-2-thioxothiazolidin-3-yl)-3-methylbutanoic acid] | 60 ± 6 µg/mL (≈ 137 µM) | 30 ± 10 µg/mL (≈ 68.7 µM) | 8 ± 0.6 µg/mL (≈ 18.3 µM) | 4 µg/mL (≈ 9.16 µM) | 15 ± 9 µg/mL (≈ 34.4 µM) | 8 ± 1 µg/mL (≈ 18.3 µM) | 30 ± 10 µg/mL (≈ 68.7 µM) | 15 µg/mL (≈ 34.4 µM) | 60 ± 6 µg/mL (≈ 137 µM) | 30 ± 10 µg/mL (≈ 68.7 µM) | 8 ± 0.6 µg/mL (≈ 18.3 µM) | 4 ± 5 µg/mL (≈ 9.16 µM) | 15 ± 9 µg/mL (≈ 34.4 µM) | 8 ± 9 µg/mL (≈ 18.3 µM) | 60 ± 6 µg/mL (≈ 137 µM) | 30 ± 10 µg/mL (≈ 68.7 µM) | 15 ± 3 µg/mL (≈ 34.4 µM) | 8 ± 0.6 µg/mL (≈ 18.3 µM) | 120 ± 40 µg/mL (≈ 275 µM) | 60 ± 6 µg/mL (≈ 137 µM) | MIC [2]: 4 ± 5 µg/mL (≈ 9.16 µM); MIC [4]: 15 ± 1 µg/mL (≈ 34.4 µM); MFC [8]: 30 ± 10 µg/mL (≈ 68.7 µM); MIC [8]: 15 ± 3 µg/mL (≈ 34.4 µM); MFC [9]: 30 ± 10 µg/mL (≈ 68.7 µM); MIC [9]: 15 ± 3 µg/mL (≈ 34.4 µM); MFC (P. ochrochloron; Penicillium ochrochloron): 30 ± 10 µg/mL (≈ 68.7 µM); MIC (P. ochrochloron; [19]): 15 ± 3 µg/mL (≈ 34.4 µM); MFC [10]: 30 ± 10 µg/mL (≈ 68.7 µM); MIC [10]: 15 ± 3 µg/mL (≈ 34.4 µM); MFC [12]: 120 ± 40 µg/mL (≈ 275 µM); MIC [12]: 60 ± 6 µg/mL (≈ 137 µM) |
| CC(=O)N1CCN(c2ccc(OCC3COC(Cn4ccnc4)(c4ccc(Cl)cc4Cl)O3)cc2)CC1 (stereo not shown) [Ketoconazole, reference compound] | – | – | – | – | – | – | – | – | – | – | – | – | – | – | – | – | 500 ± 6 µg/mL (≈ 941 µM) | 250 ± 50 µg/mL (≈ 470 µM) | 500 ± 1 µg/mL (≈ 941 µM) | 200 ± 10 µg/mL (≈ 376 µM) | MFC [8]: 500 ± 4 µg/mL (≈ 941 µM); MIC [8]: 200 ± 10 µg/mL (≈ 376 µM); MFC [9]: 500 ± 2 µg/mL (≈ 941 µM); MIC [9]: 200 ± 10 µg/mL (≈ 376 µM); MFC (P. ochrochloron; Penicillium ochrochloron): 3500 ± 30 µg/mL (≈ 6590 µM); MIC (P. ochrochloron; [19]): 2500 ± 300 µg/mL (≈ 4700 µM); MFC [10]: 500 ± 3 µg/mL (≈ 941 µM); MIC [10]: 200 ± 10 µg/mL (≈ 376 µM); MFC ([11]; Trichoderma viride, IAM5061): 1500 ± 90 µg/mL (≈ 2820 µM); MIC [11, 20]: 1000 ± 100 µg/mL (≈ 1880 µM); MFC [12]: 300 ± 10 µg/mL (≈ 565 µM); MIC [12]: 200 ± 10 µg/mL (≈ 376 µM) |
| [H]/N=C(/N)N[C@H]1[C@H](O)[C@@H](O)[C@H](O[C@@H]2O[C@@H](C)[C@](O)(C=O)[C@H]2O[C@@H]2O[C@@H](CO)[C@H](O)[C@@H](O)[C@@H]2NC)[C@@H](N/C(N)=N\[H])[C@@H]1O [Streptomycin, reference compound] | 3 ± 0.5 µg/mL (≈ 5.16 µM) | 1.5 ± 0.2 µg/mL (≈ 2.58 µM) | 300 ± 30 µg/mL (≈ 516 µM) | 200 ± 5 µg/mL (≈ 344 µM) | 200 µg/mL (≈ 344 µM) | 100 ± 50 µg/mL (≈ 172 µM) | 300 ± 30 µg/mL (≈ 516 µM) | 150 ± 30 µg/mL (≈ 258 µM) | 300 ± 30 µg/mL (≈ 516 µM) | 200 µg/mL (≈ 344 µM) | 200 µg/mL (≈ 344 µM) | 100 ± 50 µg/mL (≈ 172 µM) | 200 ± 9 µg/mL (≈ 344 µM) | 100 ± 50 µg/mL (≈ 172 µM) | 200 µg/mL (≈ 344 µM) | 100 µg/mL (≈ 172 µM) | – | – | – | – | – |
